Earlier results, collected in patent publication US11304951B1 (Janssen Pharmaceutica NV, priority 2020, dated 2022).

- water solubility: extreme low water solubility
Structure (SMILES): CCCCCCCCCCCCCCCC(=O)OC1CCCn2c1nc(C)c(CCN1CCC(c3noc4cc(F)ccc34)CC1)c2=O (racemic) [paliperidone palmitate, (±)-3-[2-[4-(6-fluoro-1,2-benzisoxazol-3-yl)-1-piperidinyl]ethyl]-6,7,8,9-tetrahydro-2-methyl-4-oxo-4H-pyrido[1,2-c]pyrimidin-9-yl hexadecanoate]
